Test results as given in PMC1084349 (BMC Neuroscience, 2005).
Structures can show the parent of a compound that is named as a salt. Where two headings read alike, the source gives them in different places.

Assays:
[1] = system: rTas1r2 and rTas1r3 mutants m1 – m7 other than m6; test: Calcium mobilization (FLIPR), other rTas1r3 mutants (m1-m5, m7); type: cell-based, rat; conditions: stimulation with 1 mM stevioside; 1.0 mM lactisole
Description: Receptor mutants were generated by site directed mutagenesis according to the QuikChange protocol (Stratagene). The forward and reverse complement primers contained the desired mutations and annealed to the same sequence on opposite strands of the plasmids. The following rTas1r3 receptor variants were generated: m1: S576L; m2: R632Q, S635P, S637Q; m3: M644L A645S; m4: A702T; m5: Q717H, V718M, V723A, E725V; m6: L735F, V738A, I740A. m6/1: V738A, I740A, m6/2: L735F, I740A, m6/3: L735F, V738A. m7: A793V, Y794L, Q795R. Subsequently a rTas1r3-V738A variant was generated. All constructs were checked by sequencing.
The cDNAs were transiently transfected into HEK293T cells stably expressing the chimeric G-protein subunit Gα16gust44 [20] using Lipofectamine 2000 (Invitrogen) according to the manufacturer's protocol. 3–4 hours after transfection, DMEM was replaced by low-glucose DMEM supplemented with GlutaMAX and 10% dialyzed FBS (Invitrogen). 22–44 hours later, cells were loaded for 1 hour with the calcium sensitive dye Fluo4-AM (2 μg/ml in DMEM, Molecular Probes). […] Calcium mobilization was monitored by an automated fluorometric imaging plate reader (FLIPR, Molecular Devices). […] The obtained calcium signals were corrected for the response of mock transfected cells and normalized to the fluorescence of cells prior to the stimulus using ΔF/F=(F-F0)/F0. […]

[2] = system: hTAS1R2 and tas1r3-hN-rTM; test: Calcium mobilization (FLIPR), chimera with human N-terminus and rat transmembrane region; type: cell-based
Description: The receptor chimeras of Tas1r3 were constructed using recombinant PCR. In the first reactions the N-terminal and the C-terminal part containing the seven transmembrane domains of hTAS1R3 and rTas1r3 were amplified from plasmid DNA using Ultra Pfu Polymerase (Stratagene). For the hTAS1R3 and rTas1r3 N-termini the forward vector-anchored primer (CMV: […]) and a reverse gene specific primer ([…]) were used. The hTAS1R3 and rTas1r3 C-terminal part were amplified with forward gene specific primer ([…]) and a reverse vector-anchored primer ([…]). PCR conditions were: 5 min, 94°C, 24 cycles 1 min 94°C, 0.5 min 64°C, 2 min 72°C; 5 min 72°C. The amplicons were purified using the Highpure PCR Product Purification Kit (Roche) and used as template for the second PCR. To create the chimeric receptor tas1r3-hN-rTM, equimolar amounts (~50 ng) of the hTAS1R3 N-terminus and rTas1r3 transmembrane domains were combined without additional oligonucleotides. PCR conditions were: 5 min 94°C; 15 cycles of 2 min 64°C, 2 min 72°C and 0.5 min 94°C; followed by 5 min 64°C and 10 min 72°C. […] These chimeras were cloned into pcDNA5/FRT.
The cDNAs were transiently transfected into HEK293T cells stably expressing the chimeric G-protein subunit Gα16gust44 [20] using Lipofectamine 2000 (Invitrogen) according to the manufacturer's protocol. 3–4 hours after transfection, DMEM was replaced by low-glucose DMEM supplemented with GlutaMAX and 10% dialyzed FBS (Invitrogen). 22–44 hours later, cells were loaded for 1 hour with the calcium sensitive dye Fluo4-AM (2 μg/ml in DMEM, Molecular Probes). Cells were washed 3x in solution C1 (130 mM NaCl, 5 mM KCl, 10 mM Hepes, 2 mM CaCl2, and 5 mM Glucose, pH 7,4). Calcium mobilization was monitored by an automated fluorometric imaging plate reader (FLIPR, Molecular Devices). Ligands (Sigma-Aldrich, Merck) were dissolved in C1 solution. All data were collected from at least two independent experiments carried out in triplicate. The obtained calcium signals were corrected for the response of mock transfected cells and normalized to the fluorescence of cells prior to the stimulus using ΔF/F=(F-F0)/F0. […]
All sweeteners were used at concentrations which were close to the maximal obtainable signal. (c) Alignment of amino acid sequences of the human, rat, and mouse Tas1r3 transmembrane regions. Color code: white, identical; grey, conservative; dark-grey, similar; black, non-similar. TM, predicted transmembrane domain, indicated by a black bar. Dots indicate the location of the primer used to generate the chimeric rat-human Tas1r3 receptors. Asterisks denote amino acid positions that are identical in rat and mouse but variable between humans and rodents and are located in the extracellular loops or the upper part of the transmembran regions. Boxes indicate the several rTas1r3 mutants m1 – m7, including the amino acid substitutions. m6/1 – m6/3 signified the reconverted amino acid of mutant m6.

sweet taste [3] = system: sweet taste; design: method as in PMID 11917125, PMID 7812727, PMID 12379598, PMID 10480680; conditions: humans; cited from earlier work
sweet taste [4] = system: sweet taste; design: method as in PMID 11917125, PMID 7812727, PMID 12379598, PMID 10480680; conditions: rats; cited from earlier work
hTAS1R2-hTAS1R3 = target: T1, hTAS1R2-hTAS1R3 (Homo sapiens, UniProt Q7RTX0+Q8TE23); test: Calcium mobilization (FLIPR) in transfected HEK293T-Gα16gust44 cells, human sweet receptor; conditions: asp 15 mM; cyc 30 mM; neo 0.1 mM; sac 10 mM; suc 100 mM; stev 1 mM
T1 sequence (Q8TE23 20-839): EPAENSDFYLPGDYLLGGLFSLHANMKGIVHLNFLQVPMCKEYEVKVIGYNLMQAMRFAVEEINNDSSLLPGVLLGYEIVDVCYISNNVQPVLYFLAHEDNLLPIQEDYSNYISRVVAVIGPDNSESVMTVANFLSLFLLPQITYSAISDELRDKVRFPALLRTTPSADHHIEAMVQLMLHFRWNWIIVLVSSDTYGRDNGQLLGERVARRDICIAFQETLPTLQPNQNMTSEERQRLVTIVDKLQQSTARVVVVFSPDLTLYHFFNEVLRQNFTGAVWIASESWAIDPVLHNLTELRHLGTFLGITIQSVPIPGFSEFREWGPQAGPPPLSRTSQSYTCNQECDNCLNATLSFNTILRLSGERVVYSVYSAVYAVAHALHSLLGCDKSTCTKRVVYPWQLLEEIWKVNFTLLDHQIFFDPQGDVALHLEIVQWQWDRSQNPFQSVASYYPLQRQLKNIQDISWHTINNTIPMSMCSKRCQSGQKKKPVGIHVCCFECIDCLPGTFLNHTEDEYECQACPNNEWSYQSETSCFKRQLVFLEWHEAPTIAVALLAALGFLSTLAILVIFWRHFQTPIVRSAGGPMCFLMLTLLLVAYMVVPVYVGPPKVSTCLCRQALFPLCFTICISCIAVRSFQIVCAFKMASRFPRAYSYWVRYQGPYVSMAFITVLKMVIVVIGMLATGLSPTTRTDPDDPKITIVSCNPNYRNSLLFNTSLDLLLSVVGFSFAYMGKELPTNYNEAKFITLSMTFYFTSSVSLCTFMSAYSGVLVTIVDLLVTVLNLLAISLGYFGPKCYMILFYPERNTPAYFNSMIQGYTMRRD
T1 sequence (Q7RTX0 21-852): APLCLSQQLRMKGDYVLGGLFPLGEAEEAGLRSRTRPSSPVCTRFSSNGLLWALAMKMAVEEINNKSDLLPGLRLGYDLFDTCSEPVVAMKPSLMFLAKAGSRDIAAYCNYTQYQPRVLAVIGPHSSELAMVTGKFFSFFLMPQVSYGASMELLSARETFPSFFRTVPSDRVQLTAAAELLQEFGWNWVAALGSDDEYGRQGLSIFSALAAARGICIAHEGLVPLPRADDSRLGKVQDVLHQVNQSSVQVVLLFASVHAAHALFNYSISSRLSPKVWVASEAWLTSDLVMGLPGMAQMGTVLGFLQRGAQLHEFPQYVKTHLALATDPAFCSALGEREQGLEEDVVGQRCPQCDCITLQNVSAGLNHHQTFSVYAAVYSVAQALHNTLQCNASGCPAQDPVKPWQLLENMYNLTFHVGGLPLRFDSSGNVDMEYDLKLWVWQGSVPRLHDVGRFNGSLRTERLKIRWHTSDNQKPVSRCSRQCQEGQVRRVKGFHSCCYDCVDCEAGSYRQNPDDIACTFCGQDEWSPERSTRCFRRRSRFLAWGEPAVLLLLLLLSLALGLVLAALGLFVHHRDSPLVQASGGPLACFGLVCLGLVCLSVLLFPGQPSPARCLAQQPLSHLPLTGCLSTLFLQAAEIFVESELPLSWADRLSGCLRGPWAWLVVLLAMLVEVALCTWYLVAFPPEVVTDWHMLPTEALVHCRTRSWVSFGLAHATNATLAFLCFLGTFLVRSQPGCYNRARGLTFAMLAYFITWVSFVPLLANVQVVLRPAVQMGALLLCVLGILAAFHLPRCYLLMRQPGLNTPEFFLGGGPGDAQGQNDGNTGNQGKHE

[5] = system: human TAS1R2-TAS1R3 heteromer; conditions: cited from earlier work

Compound: COc1ccc(OC(C)C(=O)O)cc1 (stereo not drawn) [lactisole, 2-(4-methoxphenoxy) propanoic acid sodium salt]
- lactisole sensitivity conferred to the heteromer [1]: did not
- lactisole sensitivity of agonist responses ([2]; 1.0 mM lactisole, all four agonists): lactisole insensitive
- suppression of the sweet taste of various compounds (sweet taste [3]): suppresses the sweet taste
- suppression of the sweet taste of various compounds (sweet taste [4]): not in rats

Compound: O=C1NS(=O)(=O)c2ccccc21 [saccharin]
- activation of receptor (calcium response) ([2]; asp 15 mM, cyc 30 mM, neo 0.1 mM, sac 10 mM, suc 100 mM, stev 1 mM): responded
- activation of receptor (calcium response) (hTAS1R2-hTAS1R3): elevated intracellular calcium levels

Compound: brazzein: sweet protein (QDKCKKVYENYPVSKCQLANQCNYDCKLDKHARSGECFYDEKRNLQCICDYCEY; UniProt P56552 1-54, looked up)
- activation of heteromer [5]: only activate the human

Compound: monellin
- activation of heteromer [5]: only activate the human

Compound: thaumatin
- activation of heteromer [5]: only activate the human
